The values that follow come from patent US9434693B2, “Substituted pyrazoles as N-type calcium channel blockers” (Janssen Pharmaceutica NV, priority 2012, dated 2016).

Read-outs that look alike come from different tables or passages of the source.

In assay [1] the target is N-type calcium channel (α1B (Cav2.2), β3 and α2δ subunits) in stable HEK cell line (Homo sapiens (Human), UniProt Q00975). In words: Functional assay (FDSS calcium mobilization): antagonism of N-type calcium channel. As to conditions: for inhibition at 0.33 µM: HEK293, FDSS, 0.33 μM compound; for IC50: KCl (50 mM) depolarization, six-point concentration-response. The assay is classed as cell-based. Here is the method: A stable cell line (HEK parent) co-expressing the α1B (Cav2.2), β3 and α2δ subunits of the N-type calcium channel subunits was used. These cells were routinely grown as monolayers in low glucose-containing Dulbecco's Modified Eagle Medium supplemented with 10% FBS, 2 mM L-glutamine, 100 I.U./mL penicillin, 100 μg/mL streptomycin, 400 μg/mL G418 and 200 μg/mL Zeocin (split ratio=1:5). Cells were maintained in 5% CO2 at 37° C. Compounds of Formula (I) were prepared as 10 mM stocks in DMSO from neat compound, if available. Otherwise, the 5 or 10 mM DMSO stock solutions provided in-house were used.
Calcium mobilization responses to KCl depolarization were evaluated by measuring the intensity of calcium-mediated fluorescent signal in the presence of BD Calcium Assay Dye (BD Biosciences, Franklin Lakes, N.J., U.S.A.), utilizing a Functional Drug Screening System (FDSS) by Hamamatsu Corporation (Bridgewater, N.J. U.S.A.).
Twenty-four hr prior to assay, cells were seeded in clear-base poly-D-lysine-coated 384-well plates (BD Biosciences) at a density of 5,000 cells per well in culture medium and grown overnight in 5% CO2 at 37° C. On the day of assay, growth media were removed, and cells were loaded with BD calcium assay dye (BD Biosciences) for 35 min at 37° C. under 5% CO2 and then for 25 min at room temp. Utilizing the FDSS, cells were exposed to representative compounds of Formula (I) at varying concentrations, and intracellular calcium was measured for 5 min prior to the addition of 50 mM KCl for an additional 3 min of measurement.
IC50 values for representative compounds of Formula (I) were determined from six-point concentration-response experiments and represent the concentration of said compound required to inhibit 50% of the maximal response. Maximal fluorescence intensity (FI) achieved upon addition of 50 mM KCl was exported from the FDSS software and further analyzed using GraphPad Prism 3.02 (Graph Pad Software Inc., San Diego, Calif., U.S.A.). Data were normalized to the maximum average counts from quadruplicate wells for each condition in the presence of 50 mM KCl and to the minimum average counts in the presence of buffer. Theoretical curves were generated using nonlinear regression curve-fitting analysis of either sigmoidal concentration-response or sigmoidal concentration-response (variable slope), and the IC50 values with the best-fit curve determined by GraphPad Prism were reported.
(Calcium flux is commonly read through the fluorescence of an indicator in the cells.)

Assay [2] has as its target N-type calcium channel (Homo sapiens (Human), UniProt Q00975). In words: Automated electrophysiology assay (QPatch-HT whole-cell patch clamp). In kind it is cell-based. Here is the method:
Cells were grown in T175 flasks to 50%-90% confluence. At the time of use, cells were enzymatically treated with Detachin (Genlantis, San Diego, Calif. USA), centrifuged, rinsed, and resuspended in 293 SFM II media (Life Technologies, Grand Island, N.Y. U.S.A.) supplemented with 25 mM HEPES (Sigma-Aldrich, St. Louis, Mo. U.S.A.) to a concentration of 2-3×10^6 cells/mL. Cells were added to the automated cell preparation station on the QPatch-HT (Sophion Biosciences, North Brunswick, N.J. U.S.A.), and following a 10- to30-min recovery period with gentle stirring, the assay protocol was initiated. During the automated cell preparation, cells were collected, centrifuged and resuspended in an extracellular (EC) solution containing 132 mM NaCl, 1.8 mM CaCl2, 5.4 mM KCl, 0.8 mM MgCl2, 10 mM glucose, and 10 mM HEPES (pH=7.4), adjusted with sucrose to approximately 315 m0sm. The QPlate was primed with an intracellular solution containing 135 mM CsCl, 10 mM EGTA, 4 MgATP, 0.3 NaGTP, and 20 mM HEPES (pH=7.2), adjusted to approximately 290 m0sm with deionized water and the EC solution. Cells were added to the prepared QPlate wells by robotic pipettes of the QPatch-HT.
For cells determined to be in stable whole-cell patch clamp, the EC solution was replaced with a barium (Ba)/triethylammonium (TEA) solution containing 140 mM TEA-Cl, 10 mM BaCl2, 0.8 mM MgCl2, 10 mM glucose and 10 mM HEPES (pH=7.4). High (40 mM) BaCl2 concentrations were made with adjustments to TEA-Cl (90 mM) to maintain the osmolarity. From a resting potential of −80 mV, a train of depolarizing pulses (15 pulses at 5 Hz, +20 mV) was delivered to the cell once every 30 sec for […], and the resulting currents were measured during a control period (no compound). This protocol was repeated for each subsequent addition of control buffer with or without compound (three periods total, each with four trains). The current generated in the 1st and 15th pulses of the last train of each period in the presence of each drug concentration was normalized to the current generated during the control period at the respective pulses (representing low- and high-frequency stimulation, respectively). Data from both the second and third drug application periods were analyzed for each cell. A final addition of Ba/TEA solution containing 60-100 μM CdCl2 was made to block all N-type current and to “zero” the currents for each cell. All buffer/compound additions were made using a “spitting” feature of the QPatch-HT, which added three repetitions of 5 μL solution at the beginning of each recording period.
To examine closed-state inactivation, cells were subjected to a channel-activating 50-msec depolarizing step pulse from −80 to +10 mV, followed by a 5-sec nonactivating step to voltages ranging from −130 to −60 mV in 10 mV increments and then a 50-ms step from −80 to +10 mV to assess the remaining current. Currents from the activating voltage pulse were normalized to the peak value of the test pulse following the −130 mV step and fit to a Boltzman equation to obtain the V1/2. Roscovitine (Sigma-Aldrich) was prepared as a 100 mM stock in dimethyl sulfoxide and diluted to the indicated working concentrations. […]. Compounds of Formula (I) were diluted first into dimethyl sulfoxide and then into 10% pluronic F-127 in water (Life Technologies), sonicated for 1 min and diluted into EC buffer. Vehicle controls were run in parallel in all experiments.
Unless otherwise indicated, statistics for comparing among electrophysiological results utilized a one-way analysis of variance with Fisher's least squares determination test for pair-wise comparison.
(In patch-clamp work, channel activity is measured electrically.)

Assay [3] relates to CFA-induced thermal hyperalgesia. In words: Complete Freund's Adjuvant (CFA)-induced hyperalgesia, radiant heat. The assay is classed as in vivo, Sprague-Dawley rats. The settings on record: FIG. 1, numbers not given.
The mark [4] stands for this setting: high-frequency stimulation (15th pulse of train, 5 Hz), read-out: QPatch at High Frequency % Inhibition at 0.1 μM.
Where [5] appears, read: low-frequency stimulation (1st pulse of train), read-out: QPatch at Low Frequency % Inhibition at 0.1 μM.

N-type calcium channel, sequence (Q00975 whole entry): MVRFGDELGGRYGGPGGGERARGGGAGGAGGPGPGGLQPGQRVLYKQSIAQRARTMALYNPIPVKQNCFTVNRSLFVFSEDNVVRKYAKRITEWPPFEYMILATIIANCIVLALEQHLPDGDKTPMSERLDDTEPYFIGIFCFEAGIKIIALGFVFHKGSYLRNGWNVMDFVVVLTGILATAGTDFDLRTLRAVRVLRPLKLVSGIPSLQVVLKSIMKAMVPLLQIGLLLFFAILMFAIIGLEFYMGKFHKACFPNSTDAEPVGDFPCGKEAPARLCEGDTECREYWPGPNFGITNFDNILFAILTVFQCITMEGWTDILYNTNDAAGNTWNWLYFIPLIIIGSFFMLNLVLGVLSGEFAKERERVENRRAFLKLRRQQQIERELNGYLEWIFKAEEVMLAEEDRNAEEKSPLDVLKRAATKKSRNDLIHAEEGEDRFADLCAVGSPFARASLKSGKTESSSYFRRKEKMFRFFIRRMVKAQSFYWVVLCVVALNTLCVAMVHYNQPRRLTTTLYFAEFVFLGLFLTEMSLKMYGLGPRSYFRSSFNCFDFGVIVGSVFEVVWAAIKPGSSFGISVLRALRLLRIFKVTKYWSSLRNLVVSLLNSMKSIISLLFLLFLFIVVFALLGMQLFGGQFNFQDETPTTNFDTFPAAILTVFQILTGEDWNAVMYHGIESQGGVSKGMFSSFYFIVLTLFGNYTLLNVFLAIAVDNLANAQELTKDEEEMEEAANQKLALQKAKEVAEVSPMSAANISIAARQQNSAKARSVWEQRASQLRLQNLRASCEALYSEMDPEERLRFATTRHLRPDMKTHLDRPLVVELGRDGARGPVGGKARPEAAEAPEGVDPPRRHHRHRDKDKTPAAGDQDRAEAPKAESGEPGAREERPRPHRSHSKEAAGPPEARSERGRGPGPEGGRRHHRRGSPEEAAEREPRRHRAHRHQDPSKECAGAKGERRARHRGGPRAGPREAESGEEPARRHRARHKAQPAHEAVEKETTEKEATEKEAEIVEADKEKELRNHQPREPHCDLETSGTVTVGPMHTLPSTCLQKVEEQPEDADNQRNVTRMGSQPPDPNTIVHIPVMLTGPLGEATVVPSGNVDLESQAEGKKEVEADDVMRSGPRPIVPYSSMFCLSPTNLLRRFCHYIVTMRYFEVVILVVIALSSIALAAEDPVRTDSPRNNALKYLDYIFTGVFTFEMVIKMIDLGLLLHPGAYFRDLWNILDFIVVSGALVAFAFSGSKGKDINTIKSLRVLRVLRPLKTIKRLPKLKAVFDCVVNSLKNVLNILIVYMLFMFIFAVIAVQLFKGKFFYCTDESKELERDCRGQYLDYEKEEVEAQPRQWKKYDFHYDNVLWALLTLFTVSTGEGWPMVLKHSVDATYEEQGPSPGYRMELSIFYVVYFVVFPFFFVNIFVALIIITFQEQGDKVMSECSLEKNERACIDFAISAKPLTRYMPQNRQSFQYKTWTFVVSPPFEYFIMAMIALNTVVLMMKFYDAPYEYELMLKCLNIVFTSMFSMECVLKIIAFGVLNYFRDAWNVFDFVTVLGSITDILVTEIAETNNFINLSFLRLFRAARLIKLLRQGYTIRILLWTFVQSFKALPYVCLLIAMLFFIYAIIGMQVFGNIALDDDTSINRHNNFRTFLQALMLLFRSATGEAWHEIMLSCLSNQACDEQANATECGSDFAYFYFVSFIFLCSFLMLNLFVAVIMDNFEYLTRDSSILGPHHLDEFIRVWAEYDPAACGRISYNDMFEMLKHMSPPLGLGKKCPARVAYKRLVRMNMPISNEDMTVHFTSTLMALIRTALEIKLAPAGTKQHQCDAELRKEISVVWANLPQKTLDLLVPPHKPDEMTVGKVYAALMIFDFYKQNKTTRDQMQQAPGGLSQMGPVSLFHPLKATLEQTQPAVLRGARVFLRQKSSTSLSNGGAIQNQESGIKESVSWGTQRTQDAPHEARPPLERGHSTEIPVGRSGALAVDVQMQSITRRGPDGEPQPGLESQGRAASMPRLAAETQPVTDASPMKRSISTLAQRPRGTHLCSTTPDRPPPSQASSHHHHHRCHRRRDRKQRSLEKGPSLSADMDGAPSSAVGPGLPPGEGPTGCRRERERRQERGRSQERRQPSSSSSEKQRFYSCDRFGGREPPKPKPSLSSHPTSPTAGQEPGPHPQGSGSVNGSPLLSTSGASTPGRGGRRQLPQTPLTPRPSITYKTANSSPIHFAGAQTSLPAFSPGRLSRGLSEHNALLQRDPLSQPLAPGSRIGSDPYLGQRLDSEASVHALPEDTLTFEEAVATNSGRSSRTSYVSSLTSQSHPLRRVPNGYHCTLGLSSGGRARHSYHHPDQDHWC
N-type calcium channel, sequence (P54284 whole entry partner): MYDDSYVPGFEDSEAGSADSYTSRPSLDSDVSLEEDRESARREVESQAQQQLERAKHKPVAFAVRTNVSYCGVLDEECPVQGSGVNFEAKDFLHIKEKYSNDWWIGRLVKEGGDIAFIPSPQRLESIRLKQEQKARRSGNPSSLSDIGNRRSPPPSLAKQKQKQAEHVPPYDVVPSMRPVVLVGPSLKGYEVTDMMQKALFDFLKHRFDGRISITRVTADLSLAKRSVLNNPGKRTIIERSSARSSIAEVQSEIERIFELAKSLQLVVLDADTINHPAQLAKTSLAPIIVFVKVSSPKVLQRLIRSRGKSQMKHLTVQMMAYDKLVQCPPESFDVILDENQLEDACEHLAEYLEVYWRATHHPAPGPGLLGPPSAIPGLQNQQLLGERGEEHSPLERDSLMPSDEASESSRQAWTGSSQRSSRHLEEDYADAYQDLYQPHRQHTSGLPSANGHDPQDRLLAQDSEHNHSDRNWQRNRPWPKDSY
N-type calcium channel, sequence (P54289 25-1103 partner): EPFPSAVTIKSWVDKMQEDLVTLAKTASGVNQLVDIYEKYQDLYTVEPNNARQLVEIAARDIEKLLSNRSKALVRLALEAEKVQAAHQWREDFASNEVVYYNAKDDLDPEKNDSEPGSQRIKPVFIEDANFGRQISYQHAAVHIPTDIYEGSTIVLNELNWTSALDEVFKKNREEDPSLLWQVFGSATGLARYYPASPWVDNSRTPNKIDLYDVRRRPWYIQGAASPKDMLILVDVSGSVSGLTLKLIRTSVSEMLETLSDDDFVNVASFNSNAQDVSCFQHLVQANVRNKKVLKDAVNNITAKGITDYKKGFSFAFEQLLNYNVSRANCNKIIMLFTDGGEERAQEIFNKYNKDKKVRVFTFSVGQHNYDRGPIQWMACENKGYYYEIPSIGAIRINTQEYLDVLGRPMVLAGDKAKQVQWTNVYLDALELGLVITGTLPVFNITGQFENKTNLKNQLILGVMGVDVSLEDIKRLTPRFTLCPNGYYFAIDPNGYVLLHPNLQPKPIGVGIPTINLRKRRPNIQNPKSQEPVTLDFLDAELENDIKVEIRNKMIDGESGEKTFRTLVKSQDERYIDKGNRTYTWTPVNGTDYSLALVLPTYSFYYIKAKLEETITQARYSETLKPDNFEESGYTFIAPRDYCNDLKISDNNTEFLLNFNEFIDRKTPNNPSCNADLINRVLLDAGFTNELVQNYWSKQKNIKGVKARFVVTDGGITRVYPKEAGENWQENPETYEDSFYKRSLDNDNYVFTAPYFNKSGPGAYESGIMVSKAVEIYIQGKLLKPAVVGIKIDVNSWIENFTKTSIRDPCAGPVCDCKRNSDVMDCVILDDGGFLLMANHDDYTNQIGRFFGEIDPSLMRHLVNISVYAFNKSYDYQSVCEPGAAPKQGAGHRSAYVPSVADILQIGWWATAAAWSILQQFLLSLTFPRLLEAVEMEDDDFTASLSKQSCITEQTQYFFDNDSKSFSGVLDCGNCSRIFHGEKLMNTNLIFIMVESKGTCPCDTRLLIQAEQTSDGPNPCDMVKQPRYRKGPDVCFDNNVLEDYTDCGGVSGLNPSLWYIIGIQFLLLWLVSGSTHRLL
N-type calcium channel (α1B (Cav2.2), β3 and α2δ subunits) in stable HEK cell line, sequence (Q00975 whole entry): as the sequence (Q00975 whole entry) above
N-type calcium channel (α1B (Cav2.2), β3 and α2δ subunits) in stable HEK cell line, sequence (P54284 whole entry partner): as the sequence (P54284 whole entry partner) above
N-type calcium channel (α1B (Cav2.2), β3 and α2δ subunits) in stable HEK cell line, sequence (P54289 25-1103 partner): as the sequence (P54289 25-1103 partner) above

Take `COc1ccccc1-n1nc(OC2CC(C)(C)OC(C)(C)C2)cc1-c1ccc(Cl)cc1` [Compound 23, 5-(4-chlorophenyl)-1-(2-methoxyphenyl)-3-((2,2,6,6-tetramethyltetrahydro-2H-pyran-4-yl)oxy)-1H-pyrazole]: in assay [1], the inhibition at 0.33 µM was 96% and the 50% inhibitory concentration (IC50) came to 7.6 nM. Also, the inhibition at 0.1 µM in assay [2] (setting [4]) was 37%. Besides, the inhibition at 0.1 µM in assay [2] (setting [5]) amounted to 11%. Also, in assay [3], the “effect in rat CFA radiant heat model of inflammatory pain” value is reported as “antihyperalgesic effect”.
For `COc1ccccc1-n1nc(OC2CN(S(=O)(=O)c3c(C)noc3C)C2)cc1-c1ccc(Cl)cc1` [Compound 30, 4-[(3-{[5-(4-Chlorophenyl)-1-(2-methoxyphenyl)-1H-pyrazol-3-yl]oxy}azetidin-1-yl)sulfonyl]-3,5-dimethylisoxazole], in assay [1], the inhibition at 0.33 µM came to 93% and the IC50 is 8 nM. In addition, the inhibition at 0.1 µM in assay [2] (setting [4]) was found to be 53%. The inhibition at 0.1 µM in assay [2] (setting [5]) came out at 30%.
Turning to `COc1ccc(-c2cc(OC3CC(C)(C)OC(C)(C)C3)nn2-c2ccccc2OC)cc1` [Compound 31, 1-(2-Methoxyphenyl)-5-(4-methoxyphenyl)-3-[(2,2,6,6-tetramethyltetrahydro-2H-pyran-4-yl)oxy]-1H-pyrazole], in assay [1], the inhibition at 0.33 µM is 97% and the IC50 stood at 9.4 nM. For the same compound, the inhibition at 0.1 µM in assay [2] (setting [4]) is 44%. The inhibition at 0.1 µM in assay [2] (setting [5]) is 28%.

As a reminder, the inhibition is the relative decrease from the control value, in per cent. A word on the IC50: it is the concentration needed to halve the response being measured.
